This is an account of results in paper PMC5151175 (Journal of medicinal chemistry, 2016).

Entries after “also recorded” stand apart in the source; their conditions may differ.

In data set [1] the test system is HIV-1/NL4-3. It counts as cell-based. As to conditions: for IC50 NL4-3: wild-type HIV-1/NL4-3 replication, mean ± SD of three separate experiments, NS = no selective anti-HIV activity (CC50/IC50 < 5).
Data set [2] relates to NL4-3/V370A. The class given is cell-based, HIV-1. The following applies: IC50(NL4-3/V370A)/IC50(NL4-3) ratio.
Data set [3] has as its system NL4-3 infection of TZM-bl cells. As to the kind of experiment: TZM-bl assay. As to conditions: at 2 µM; average of two tests. It counts as cell-based, HIV-1.
Data set [4] deals with NL4-3 Env-mediated cell–cell fusion. As to the kind of experiment: fusion assay. The class given is cell-based, HIV-1. As to conditions: average of two independent tests.
The nature of data set [5]: in vitro metabolic. It counts as in vitro ADME. As to conditions: human, microsomes.
For data set [6] the following is noted: human, in vivo; cited from earlier work.
Data set [7] concerns HIV-1 integrase. As to conditions: cited from earlier work.
Data set [8] concerns HIV in MT-4 cells. As to conditions: cited from earlier work; for IC50: read-out: IC50, anti-HIV activity in MT-4 cells.
For data set [9], the system named is HIV replication in MT-2 cell. As to conditions: read-out: IC50, HIV replication in MT-2 cells; cited from earlier work.

As for `O=C(/C=C/c1ccc2c(c1)OCO2)N1CCNCC1` [14c], the “IC50 NL4-3” value in [1] is “inactive”.

On to `C=C(C)[C@@H]1CC[C@]2(C(=O)N3CCN(C(=O)/C=C/c4ccc5c(c4)OCO5)CC3)CC[C@]3(C)[C@H](CC[C@@H]4[C@@]5(C)CC[C@H](OC(=O)CC(C)(C)C(=O)O)C(C)(C)[C@@H]5CC[C@]43C)[C@@H]12` [18c], for which, in data set [2], the “RFC (resistance fold change)” value was 7.89. Moreover, the “inhibition of NL4-3 infection of TZM-bl cells” value (shortened to “inhibition … of TZM-bl cells”) in data set [3] was “no inhibition; also recorded: no activity”. Besides, the “inhibition of NL4-3 Env-mediated cell–cell fusion” value in data set [4] is on record as “no activity; also recorded: did not inhibit”. This molecule also gave a microsomal CLint in data set [5] of 54 µL/min/mg.

As to `C=C(C)[C@@H]1CC[C@]2(C(=O)NCCCCCCCNC(C)=O)CC[C@]3(C)[C@H](CC[C@@H]4[C@@]5(C)CC[C@H](O)C(C)(C)[C@@H]5CC[C@]43C)[C@@H]12` [A43D], the “inhibition … of TZM-bl cells” value in data set [3] was “totally inhibited”. In data set [4], the “inhibition of NL4-3 Env-mediated cell–cell fusion” value is “strongly inhibited”.

As for `C=C(C)[C@@H]1CC[C@]2(C(=O)O)CC[C@]3(C)[C@H](CC[C@@H]4[C@@]5(C)CC[C@H](OC(=O)CC(C)(C)C(=O)O)C(C)(C)[C@@H]5CC[C@]43C)[C@@H]12` [compound 2, 3-O-(3′,3′-dimethylsuccinyl)-betulinic acid], the “elimination half-life t1/2” value in [6] was 56.3 to 69.5 h. For the same molecule, in data set [3], the “inhibition … of TZM-bl cells” value is “no inhibition”. Besides, in data set [4], the “inhibition of NL4-3 Env-mediated cell–cell fusion” value is on record as “no activity”.

With `O=C(O)/C=C/c1ccc(O)c(O)c1` [compound 5, 3,4-dihydroxycinnamic acid], the “IC50 NL4-3” value in [1] is “no selectivity”.

Regarding `O=C(/C=C/c1cc(O)c(O)cc1[N+](=O)[O-])O[C@H](Cc1cc(O)c(O)cc1[N+](=O)[O-])C(=O)O` [compound 6, 6′,6″-Dinitrorosmarinic acid], the HIV-1 integrase inhibition entry in data set [7] was “potent HIV-1 integrase inhibition”. Moreover, the “anti-HIV activity in MT-4 cells” value in [8] is on record as “moderate anti-HIV activity”.

In the case of `O=C(/C=C/c1ccc(O)c2c1[C@H](C(=O)O)[C@@H](c1ccc(O)c(O)c1)O2)O[C@H](Cc1ccc(O)c(O)c1)C(=O)O` [compound 7, (+)-Lithospermic acid], the “HIV-1 integrase inhibitory activity” value in data set [7] is “submicromolar range”.

`O=C(/C=C/c1ccc(O)c(O)c1)O[C@@H]1C[C@](O)(C(=O)O)C[C@@H](OC(=O)/C=C/c2ccc(O)c(O)c2)[C@H]1O` [compound 8, 3,5-Dicaffeoylquinic acid]: in data set [7], the “HIV-1 integrase inhibitory activity” value was “active against HIV-1 integrase”.

On to `C=C(C)[C@@H]1CC[C@]2(C(=O)N3CCNCC3)CC[C@]3(C)[C@H](CC[C@@H]4[C@@]5(C)CC[C@H](OC(=O)CC(C)(C)C(=O)O)C(C)(C)[C@@H]5CC[C@]43C)[C@@H]12` [compound 20], for which, in data set [1] (compared with 2), the “fold less active than 2 against NL4-3” value was 8 fold.

As for (+)-erythro-7′-methylcarolignan E [11a], the IC50 in data set [8] was 6.3 µM.

For (−)-erythro-7′-methylcarolignan E [11b], the half-maximal inhibitory concentration (IC50) in [8] was 5.3 µM.

For L-Chicoric acid [compound 9], the IC50 in data set [9] was 4.2 µM.
